Laboratory results taken from patent US10800757B2, “Inhibitors of TRPC6” (Boehringer Ingelheim International GmbH, priority 2017, dated 2020).
pIC50: −log10 of the molar value. Where a name gives a salt, the structure may show the parent alone.

Biological target: TRPC6 (Homo sapiens (Human), UniProt Q9Y210)
Assay: High throughput screening assay: fluorescent calcium (Fluo4/AM) assay of TRPC6 channel activation by GSK1702934A in HEK293/TREx cells
Assay type: cell-based
Conditions: HEK293/TREx cells stably transfected with TRPC6; agonist GSK1702934A; 7 concentrations 20 μM to 0.027 μM, triplicate
Description: This screening assay measures TRPC6 (transient receptor potential cation channel, subfamily C, member 6) ion channel activation via addition either of the commercially available DAG ligand analogue OAG (1-oleoyl-2-acetyl-sn-glycerol) or of the TRPC6 agonist 1-[1-(4,5,6,7,8-pentahydrocyclohepta[2,1-d]thiophen-2-ylcarbonyl)-4-piperidyl]-3-hydrobenzimidazol-2-one (GSK1702934A). The assay utilizes a FLIPR fluorescent calcium sensor 4-(6-Acetoxymethoxy-2,7-difluoro-3-oxo-9-xanthenyl)-4′-methyl-2,2′-(ethylenedioxy)dianiline-N,N,N′,N′-tetraacetic acid tetrakis(acetoxymethyl) ester (Fluo4/AM) […]. Changes (increases) in intracellular membrane calcium concentration potential as measured by the fluorescent signal increase during membrane depolarization provide a measurement of channel activity.
The commercially available HEK293/TREx line (Invitrogen) was stably transfected with a TRPC6 construct and screened by conventional calcium imaging to find clones with TRPC6 expression following stimulation with 1 μg/ml tetracycline. These cells were maintained in the growth medium recommended by the manufacturer supplemented with 100 μg/ml hygromycin to promote retention of the TRPC6 construct. After growing to near confluency, cells were plated at a density of ^˜35,000 cells/well in 384 well CellBind plates (Corning) in the presence of 1 μg/ml tetracycline, and allowed to grow for 20-30 hrs. A nearly confluent monolayer resulted. Growth media was removed from the wells and cells were then loaded with […] Fluo4/AM diluted in Ringer's Solution (6.5 g NaCl, 0.42 g KCl, 0.25 g CaCl2) and 0.2 g of sodium bicarbonate; pH 7.4) supplemented with 1% Pluronic F-127 to a final concentration of 0.5 μM and incubated for 60 min, at room temperature. Dye solution was then removed from the cells by inverting plates with a sharp flick, and replaced with 25 μl Ringer's. Following ^˜0.5 hour for recovery from loading, cells were assayed using the Hamamatsu FDSS 6000 system, which permitted illumination at 485 nm. Frames were acquired at a rate of 0.2 Hz. During the assay, the plates were continuously vortexed, with pipette mixing of wells following addition of each reagent. For the screening assay, 26 μl of a diluted compound stock (at 50 μM) was added to each well for 2 minutes following the collection of a short (4 frame) baseline. 13 μl of agonist solution consisting of 125 nM GSK1702934A diluted in high-Ca2+Ringer solution (containing 90 mm Ca2+) was then added to each well, achieving a final concentration of 20 mm Ca2+ and 10 μM test compound. Data was collected for ^˜3 minutes following addition of high Ca2+Ringer. The fluorescent ratio for each well was divided by the initial fluorescent intensity for that well and the overall response was determined by averaging the fluorescent ratio of the last 4 frames acquired during the experiment excepting the final frame. Negative and Positive controls were included on each plate. Negative controls wells consisted of HEK293/TREx TRPC6 cells exposed to assay buffer and agonist solution, but no test compound. Positive control consisted of wells consisted of HEK293/TREx TRPC6 cells exposed to 25 μM 3-[(2-chlorophenoxy)methyl]phenyl piperidyl ketone (Chembridge) diluted in Ringer's solution and agonist solution. These controls defined zero percent and 100 percent block respectively, and intensity of each well was normalized to these values.
Compounds were tested in triplicate at all concentrations. Standard software was used to fit IC50 curves.

Chain of TRPC6 (Q9Y210 whole entry, species assumed): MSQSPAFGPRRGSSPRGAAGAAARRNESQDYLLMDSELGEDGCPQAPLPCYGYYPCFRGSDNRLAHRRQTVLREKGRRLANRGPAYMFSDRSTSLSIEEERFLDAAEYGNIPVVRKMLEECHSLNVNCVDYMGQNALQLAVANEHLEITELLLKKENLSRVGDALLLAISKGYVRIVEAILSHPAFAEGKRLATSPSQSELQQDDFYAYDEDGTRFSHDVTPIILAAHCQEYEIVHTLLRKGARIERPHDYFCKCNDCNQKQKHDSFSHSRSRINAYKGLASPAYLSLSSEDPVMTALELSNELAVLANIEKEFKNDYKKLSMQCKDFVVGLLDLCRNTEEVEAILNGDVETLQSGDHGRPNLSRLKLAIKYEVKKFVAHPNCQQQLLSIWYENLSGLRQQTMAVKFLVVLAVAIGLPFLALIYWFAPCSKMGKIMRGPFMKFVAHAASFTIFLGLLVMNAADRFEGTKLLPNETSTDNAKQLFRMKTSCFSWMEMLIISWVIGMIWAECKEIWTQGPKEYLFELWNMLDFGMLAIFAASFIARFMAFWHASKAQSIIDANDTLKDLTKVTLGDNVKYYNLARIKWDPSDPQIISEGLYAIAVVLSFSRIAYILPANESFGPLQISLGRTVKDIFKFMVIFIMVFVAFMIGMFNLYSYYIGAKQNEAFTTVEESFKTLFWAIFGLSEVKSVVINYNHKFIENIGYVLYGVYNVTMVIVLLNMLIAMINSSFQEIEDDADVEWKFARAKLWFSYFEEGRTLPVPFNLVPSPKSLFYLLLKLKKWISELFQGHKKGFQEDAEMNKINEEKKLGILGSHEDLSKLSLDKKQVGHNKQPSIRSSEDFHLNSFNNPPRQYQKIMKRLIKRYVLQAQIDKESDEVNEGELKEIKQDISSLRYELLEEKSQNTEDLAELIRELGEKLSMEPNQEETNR

SMILES	pIC50
COc1cc(C(=O)N2CCC(c3cnc(N)cc3OC)CC2)ncc1OCC1CCC1 [Compound 53, (6-Amino-4-methoxy-3′,4′,5′,6′-tetrahydro-2′H-[3,4′]bipyridinyl-1′-yl)-(5-cyclobutylmethoxy-4-methoxy-pyridin-2-yl)-methanone]	6.68
COc1cc(C(=O)N2CCC(c3cnc(N)cc3OC)CC2)ncc1Oc1ccccc1 [Compound 23, (6-Amino-4-methoxy-3′,4′,5′,6′-tetrahydro-2′H-[3,4′]bipyridinyl-1′-yl)-(4-methoxy-5-phenoxy-pyridin-2-yl)-methanone]	7.27
COc1cc(C(=O)N2CCC(c3ccc(N)nn3)CC2)ncc1Oc1ccc(Cl)cc1 [Compound 34, [4-(6-Amino-pyridazin-3-yl)-piperidin-1-yl]-[5-(4-chloro-phenoxy)-4-methoxy-pyridin-2-yl]-methanone]	7.07
COc1cc(C(=O)N2CCC(c3nnc(N)cc3OC)CC2)ncc1Oc1ccc(C(F)(F)F)cc1 [Compound 56, [4-(6-Amino-4-methoxy-pyridazin-3-yl)-piperidin-1-yl]-[4-methoxy-5-(4-trifluoromethyl-phenoxy)-pyridin-2-yl]-methanone]	6.54
COc1cc(C(=O)N2CCN(c3cnc(N)cc3C)C[C@@H]2CO)ncc1Oc1ccccc1 [Compound 18, [(R)-4-(6-Amino-4-methyl-pyridin-3-yl)-2-hydroxymethyl-piperazin-1-yl]-(4-methoxy-5-phenoxy-pyridin-2-yl)-methanone]	7.51
COc1cc(C(=O)N2CCC(c3cnc(N)cc3OC)CC2)ncc1OC1CCCC1 [Compound 35, (6-Amino-4-methoxy-3′,4′,5′,6′-tetrahydro-2′H-[3,4′]bipyridinyl-1′-yl)-(5-cyclopentyloxy-4-methoxy-pyridin-2-yl)-methanone]	7.03
COc1cc(C(=O)N2CCC(c3ccc(N)nn3)CC2)ncc1Oc1ccc(F)cc1 [Compound 17, 6-{1-[5-(4-Fluorophenoxy)-4-methoxypyridine-2-carbonyl]piperidin-4-yl}pyridazin-3-amine]	7.54
COc1cc(C(=O)N2CCN(c3ccc(N)nc3)CC2)ncc1Oc1ccc(F)cc1 [Compound 13, [4-(6-Amino-pyridin-3-yl)-piperazin-1-yl]-[5-(4-fluoro-phenoxy)-4-methoxy-pyridin-2-yl]-methanone]	7.57
COc1cc(C(=O)N2CCN(c3ccc(N)nc3)CC2)ncc1Oc1ccccc1 [Compound 15, [4-(6-Amino-pyridin-3-yl)-piperazin-1-yl]-(4-methoxy-5-phenoxy-pyridin-2-yl)-methanone]	7.57
COc1ccc(Oc2cnc(C(=O)N3CCC(c4ccc(N)nc4)CC3)cc2OC)cc1 [Compound 22, (6-Amino-3′,4′,5′,6′-tetrahydro-2′H-[3,4′]bipyridinyl-1′-yl)-[4-methoxy-5-(4-methoxy-phenoxy)-pyridin-2-yl]-methanone]	7.34
COc1cc(C(=O)N2CCN(c3cnc(N)cc3OC)CC23CC3)ncc1Oc1ccc(F)cc1 [Compound 9, [7-(6-Amino-4-methoxy-pyridin-3-yl)-4,7-diaza-spiro[2.5]oct-4-yl]-[5-(4-fluoro-phenoxy)-4-methoxy-pyridin-2-yl]-methanone]	7.57
COc1cc(C(=O)N2CCC(c3cnc(N)cc3OC)CC2)ncc1OCC1CC(F)(F)C1 [Compound 45, (6-Amino-4-methoxy-3′,4′,5′,6′-tetrahydro-2′H-[3,4′]bipyridinyl-1′-yl)-[5-(3,3-difluoro-cyclobutylmethoxy)-4-methoxy-pyridin-2-yl]-methanone]	6.82
COc1cc(C(=O)N2CCC(c3nnc(N)cc3OC)CC2)ncc1Oc1ccc(F)cc1 [Compound 49, [4-(6-Amino-4-methoxy-pyridazin-3-yl)-piperidin-1-yl]-[5-(4-fluoro-phenoxy)-4-methoxy-pyridin-2-yl]-methanone]	6.60
COc1cc(C(=O)N2CCC(c3cnc(N)cc3OC)CC2)ncc1OC[C@H]1C[C@H](C(F)(F)F)C1 [Compound 92, TFA salt of 4-Methoxy-5-[1-(4-methoxy-5-{[3-(trifluoromethyl)-cyclobutyl]methoxy}-pyridine-2-carbonyl)piperidin-4-yl]pyridin-2-amin]	6.20
COc1cc(C(=O)N2CCC(c3cnc(N)cc3OC)CC2)ncc1OCC1CCC1(F)F (centres unmarked) [Compound 95, 5-(1-{5-[(2,2-Difluorocyclobutyl)-methoxy]-4-methoxy-pyridine-2-carbonyl}-piperidin-4-yl)-4-methoxypyridin-2-amine]	6.35
COc1cc(C(=O)N2CCC(c3ccc(N)nn3)CC2)ncc1OCc1ccccc1F [Compound 57, [4-(6-Amino-pyridazin-3-yl)-piperidin-1-yl]-[5-(2-fluoro-benzyloxy)-4-methoxy-pyridin-2-yl]-methanone]	6.52
COc1cc(C(=O)N2CCC(c3cnc(N)cc3OC)CC2)ncc1OC[C@H]1C[C@@H](C(F)(F)F)C1 [Compound 93, TFA salt of 4-Methoxy-5-[1-(4-methoxy-5-{[3-(trifluoromethyl)-cyclobutyl]methoxy}-pyridine-2-carbonyl)piperidin-4-yl]pyridin-2-amin]	6.23
COc1cc(C(=O)N2CCC(c3nnc(N)cc3C)CC2)ncc1Oc1ccc(F)cc1 [Compound 29, 6-{-[5-(4-Fluorophenoxy)-4-methoxypyridine-2-carbonyl]piperidin-4-yl}-5-methylpyridazin-3-amine trifluoroacetic acid]	6.96
COc1cc(C(=O)N2CCC(c3ccc(N)nn3)CC2)ncc1Oc1ccc(OC(C)C)cc1 [Compound 6, [4-(6-Amino-pyridazin-3-yl)-piperidin-1-yl]-[5-(4-isopropoxy-phenoxy)-4-methoxy-pyridin-2-yl]-methanone]	7.57
COc1cc(C(=O)N2CCC(c3cnc(N)cc3OC)CC2)ncc1OCC(C)(C)C [Compound 59, (6-Amino-4-methoxy-3′,4′,5′,6′-tetrahydro-2′H-[3,4′]bipyridinyl-1′-yl)-[5-(2,2-dimethyl-propoxy)-4-methoxy-pyridin-2-yl]-methanone]	6.47
COc1cc(C(=O)N2CCC(c3ccc(N)nn3)CC2)ncc1O[C@@H](C)C1CC1 [Compound 79, [4-(6-Amino-pyridazin-3-yl)-piperidin-1-yl]-[5-((S)-1-cyclopropyl-ethoxy)-4-methoxy-pyridin-2-yl]-methanone]	5.43
COc1cc(C(=O)N2CCN(c3ccc(N)nc3)C[C@@H]2CO)ncc1Oc1ccc(F)cc1 [Compound 20, [(R)-4-(6-Amino-pyridin-3-yl)-2-hydroxymethyl-piperazin-1-yl]-[5-(4-fluoro-phenoxy)-4-methoxy-pyridin-2-yl]-methanone]	7.38
COc1ccc(Oc2cnc(C(=O)N3CCC(c4cnc(N)cc4OC)CC3)cc2OC)cc1 [Compound 28, (6-Amino-4-methoxy-3′,4′,5′,6′-tetrahydro-2′H-[3,4′]bipyridinyl-1′-yl)-[4-methoxy-5-(4-methoxy-phenoxy)-pyridin-2-yl]-methanone]	7.00
COc1cc(C(=O)N2C3CCC2CN(c2cnc(N)cc2OC)C3)ncc1Oc1ccccc1 [Compound 51, [3-(6-Amino-4-methoxy-pyridin-3-yl)-3,8-diaza-bicyclo[3.2.1]oct-8-yl]-(4-methoxy-5-phenoxy-pyridin-2-yl)-methanone]	6.54
CCCOc1cnc(C(=O)N2CCC(c3ccc(N)nn3)CC2)cc1OC [Compound 76, [4-(6-Amino-pyridazin-3-yl)-piperidin-1-yl]-(4-methoxy-5-propoxy-pyridin-2-yl)-methanone]	5.74
COc1cc(N)ncc1N1CCN(C(=O)c2ccc(Oc3ccccc3)cn2)[C@@H]([C@@H](C)O)C1 [Compound 50, (1R)-1-[(2R)-4-(6-amino-4-methoxypyridin-3-yl)-1-(5-phenoxypyridine-2-carbonyl)piperazin-2-yl]ethan-1-ol]	7.33
